Holding throughout (type): cell-based
Assay [1] concerns Mannheimia haemolytica MH 6357 (M7/2, reference strain, cattle infection strain). The experiment in a line: MIC, broth-microdilution (CLSI VET01-A4), strain MH 6357. The settings on record: Mannheimia haemolytica strain MH 6357, broth-microdilution; unit assumed. A digest of the protocol:
(§1)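 Compounds were serially diluted twofold in microdilution trays. Growth was judged by eye, and the MIC was the lowest concentration showing no turbidity. Results were interpreted per CLSI VET01-S3.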
Background: Dilution methods test growth across graded concentrations, often in twofold steps.

Assay [2] has as its system Mannheimia haemolytica MH 6374 (ATCC 33396, reference strain). Description: MIC, broth-microdilution (CLSI VET01-A4), strain MH 6374. The note with it: Mannheimia haemolytica strain MH 6374, broth-microdilution; unit assumed. A digest of the protocol: as §1
Assay [3] relates to Mannheimia haemolytica MH 10720 (154, BRD field isolate). Description: MIC, broth-microdilution (CLSI VET01-A4), strain MH 10720. The settings on record: Mannheimia haemolytica strain MH 10720, broth-microdilution; unit assumed. A digest of the protocol: as §1
The subject of assay [4] is Mannheimia haemolytica MH 12587 (1071, BRD field isolate, macrolide-resistance: erm+, E+). The experiment in a line: MIC, broth-microdilution (CLSI VET01-A4), strain MH 12587. The settings on record: Mannheimia haemolytica strain MH 12587, broth-microdilution; unit assumed. A digest of the protocol: as §1
Assay [5] deals with Mannheimia haemolytica MH 13065 (XB0446-6003.9, BRD field isolate). Description: MIC, broth-microdilution (CLSI VET01-A4), strain MH 13065. The settings on record: Mannheimia haemolytica strain MH 13065, broth-microdilution; unit assumed. A digest of the protocol:
as §1

Assay [6] relates to Mannheimia haemolytica MH 13093 (XB0472-6014.1, BRD field isolate). Description: MIC, broth-microdilution (CLSI VET01-A4), strain MH 13093. The settings on record: Mannheimia haemolytica strain MH 13093, broth-microdilution; unit assumed. A digest of the protocol:
as §1

The test system of assay [7] is Pasteurella multocida PM 6267 (P 2225 (L386), reference strain, mouse infection strain). The experiment in a line: MIC, broth-microdilution (CLSI VET01-A4), strain PM 6267. The settings on record: Pasteurella multocida strain PM 6267, broth-microdilution; unit assumed. A digest of the protocol:
as §1

The test system of assay [8] is Pasteurella multocida PM 6391 (ATCC 43137, reference strain). The experiment in a line: MIC, broth-microdilution (CLSI VET01-A4), strain PM 6391. The note with it: Pasteurella multocida strain PM 6391, broth-microdilution; unit assumed. Put shortly: as §1
The test system of assay [9] is Pasteurella multocida PM 10775 (080130003051, BRD field isolate). The experiment in a line: MIC, broth-microdilution (CLSI VET01-A4), strain PM 10775. The settings on record: Pasteurella multocida strain PM 10775, broth-microdilution; unit assumed. A digest of the protocol: as §1
Assay [10] deals with Pasteurella multocida PM 12080 (IV102277-0093, BRD field isolate). The experiment in a line: MIC, broth-microdilution (CLSI VET01-A4), strain PM 12080. The note with it: Pasteurella multocida strain PM 12080, broth-microdilution; unit assumed. Put shortly:
as §1

In brackets after ≈: the same amount, converted by molar mass.

`CSC(C)(C)[C@H](NC(=O)c1ccc(C#Cc2ccc(CNCc3ccncc3)nc2)cc1)C(=O)NO` [Compound 341] registered an MIC MH 6357 in assay [1] of 0.8 µg/mL (≈ 1.59 µM). Further, the MIC MH 6374 in assay [2] amounted to 1.6 µg/mL (≈ 3.18 µM). Besides, in [3], the MIC MH 10720 was 0.2 µg/mL (≈ 0.397 µM). Further, the MIC MH 12587 in assay [4] was found to be 3.1 µg/mL (≈ 6.16 µM). This molecule returned an MIC MH 13065 in assay [5] of 1.6 µg/mL (≈ 3.18 µM). In assay [6], this molecule gave an MIC MH 13093 of 1.6 µg/mL (≈ 3.18 µM). The MIC PM 6267 in assay [7] was determined as 1.6 µg/mL (≈ 3.18 µM). The molecule also gave an MIC PM 6391 in assay [8] of 0.8 µg/mL (≈ 1.59 µM). The MIC PM 10775 in [9] is 0.2 µg/mL (≈ 0.397 µM). The MIC PM 12080 in [10] came to 0.4 µg/mL (≈ 0.794 µM).
`CSC(C)(C)[C@H](NC(=O)c1ccc(C#Cc2ccc(CNCC#N)nc2)cc1)C(=O)NO` [Compound 342] registered an MIC MH 6357 in assay [1] of 1.6 µg/mL (≈ 3.54 µM). Moreover, in assay [2], the MIC MH 6374 was 3.1 µg/mL (≈ 6.87 µM). For the same molecule, the MIC MH 10720 in assay [3] amounted to 0.4 µg/mL (≈ 0.886 µM). For the same molecule, the MIC MH 12587 in assay [4] was 6.3 µg/mL (≈ 14 µM). The same molecule had an MIC MH 13065 in [5] of 3.1 µg/mL (≈ 6.87 µM). The MIC MH 13093 in assay [6] came out at 3.1 µg/mL (≈ 6.87 µM). Also, the MIC PM 6267 in assay [7] stood at 1.6 µg/mL (≈ 3.54 µM). This molecule registered an MIC PM 6391 in assay [8] of 1.6 µg/mL (≈ 3.54 µM). Also, the MIC PM 10775 in assay [9] was determined as 0.2 µg/mL (≈ 0.443 µM). In assay [10], this molecule gave an MIC PM 12080 of 0.8 µg/mL (≈ 1.77 µM).
Regarding `CSC(C)(C)[C@H](NC(=O)c1ccc(C#Cc2ccc(CNCc3ccccn3)nc2)cc1)C(=O)NO` [Compound 343], in assay [1], the MIC MH 6357 was determined as 3.1 µg/mL (≈ 6.16 µM). This molecule registered an MIC MH 6374 in assay [2] of 3.1 µg/mL (≈ 6.16 µM). In addition, in assay [3], the MIC MH 10720 was 0.4 µg/mL (≈ 0.794 µM). For the same molecule, the MIC MH 12587 in assay [4] came out at 6.3 µg/mL (≈ 12.5 µM). The same molecule came in with an MIC MH 13065 in [5] of 3.1 µg/mL (≈ 6.16 µM). In assay [6], the MIC MH 13093 was 6.3 µg/mL (≈ 12.5 µM). In addition, the MIC PM 6267 in [7] turned out to be 3.1 µg/mL (≈ 6.16 µM). Further, in assay [8], the MIC PM 6391 stood at 6.3 µg/mL (≈ 12.5 µM). For the same molecule, in assay [9], the MIC PM 10775 stood at 0.4 µg/mL (≈ 0.794 µM). This molecule also displayed an MIC PM 12080 in [10] of 1.6 µg/mL (≈ 3.18 µM).
Take `CSC(C)(C)[C@H](NC(=O)c1ccc(C#Cc2ccc(CNCc3ccco3)nc2)cc1)C(=O)NO` [Compound 344]: the MIC MH 6357 in assay [1] was 0.4 µg/mL (≈ 0.812 µM). In assay [2], this molecule returned an MIC MH 6374 of 0.8 µg/mL (≈ 1.62 µM). Further, the MIC MH 10720 in assay [3] was ≤ 0.1 µg/mL. This molecule yielded an MIC MH 12587 in [4] of 1.6 µg/mL (≈ 3.25 µM). In assay [5], this molecule showed an MIC MH 13065 of 0.8 µg/mL (≈ 1.62 µM). The molecule further displayed an MIC MH 13093 in [6] of 1.6 µg/mL (≈ 3.25 µM). The molecule also yielded an MIC PM 6267 in [7] of 0.8 µg/mL (≈ 1.62 µM). Further, the MIC PM 6391 in assay [8] worked out at 0.8 µg/mL (≈ 1.62 µM). Further, the MIC PM 10775 in assay [9] is ≤ 0.1 µg/mL. The MIC PM 12080 in assay [10] was found to be 0.4 µg/mL (≈ 0.812 µM).
`CSC(C)(C)[C@H](NC(=O)c1ccc(C#Cc2ccc(CNCC(F)(F)F)nc2)cc1)C(=O)NO` [Compound 345] yielded an MIC MH 6357 in [1] of 0.8 µg/mL (≈ 1.62 µM). Besides, the MIC MH 6374 in assay [2] was 1.6 µg/mL (≈ 3.24 µM). The MIC MH 10720 in [3] is ≤ 0.1 µg/mL. This molecule also gave an MIC MH 12587 in assay [4] of 1.6 µg/mL (≈ 3.24 µM). In [5], this molecule displayed an MIC MH 13065 of 0.8 µg/mL (≈ 1.62 µM). This molecule displayed an MIC MH 13093 in assay [6] of 1.6 µg/mL (≈ 3.24 µM). Also, the MIC PM 6267 in [7] was determined as 0.8 µg/mL (≈ 1.62 µM). In [8], this molecule gave an MIC PM 6391 of 0.8 µg/mL (≈ 1.62 µM). The MIC PM 10775 in [9] is ≤ 0.1 µg/mL. Also, the MIC PM 12080 in [10] worked out at 0.4 µg/mL (≈ 0.809 µM).
Take `CSC(C)(C)[C@H](NC(=O)c1ccc(C#Cc2ccc(CNCc3ncccn3)nc2)cc1)C(=O)NO` [Compound 346]: the MIC MH 6357 in assay [1] came out at 6.3 µg/mL (≈ 12.5 µM). The MIC MH 6374 in [2] is 6.3 µg/mL (≈ 12.5 µM). Also, in [3], the MIC MH 10720 was found to be 0.8 µg/mL (≈ 1.59 µM). Further, the MIC MH 12587 in assay [4] worked out at 12.5 µg/mL (≈ 24.8 µM). The same molecule gave an MIC MH 13065 in assay [5] of 6.3 µg/mL (≈ 12.5 µM). The molecule further had an MIC MH 13093 in [6] of 12.5 µg/mL (≈ 24.8 µM). The molecule also displayed an MIC PM 6267 in [7] of 6.3 µg/mL (≈ 12.5 µM). Further, the MIC PM 6391 in [8] worked out at 3.1 µg/mL (≈ 6.14 µM). The molecule further yielded an MIC PM 10775 in assay [9] of 0.4 µg/mL (≈ 0.793 µM). In assay [10], this molecule came in with an MIC PM 12080 of 1.6 µg/mL (≈ 3.17 µM).
In the case of `CSC(C)(C)[C@H](NC(=O)c1ccc(C#Cc2ccc(CNCc3ncc(C)o3)nc2)cc1)C(=O)NO` [Compound 347], in [1], the MIC MH 6357 was determined as 0.8 µg/mL (≈ 1.58 µM). In assay [2], this molecule gave an MIC MH 6374 of 1.6 µg/mL (≈ 3.15 µM). This molecule yielded an MIC MH 10720 in assay [3] of 0.2 µg/mL (≈ 0.394 µM). This molecule showed an MIC MH 12587 in assay [4] of 3.1 µg/mL (≈ 6.11 µM). The same molecule yielded an MIC MH 13065 in assay [5] of 1.6 µg/mL (≈ 3.15 µM). In addition, the MIC MH 13093 in assay [6] was 1.6 µg/mL (≈ 3.15 µM). The MIC PM 6267 in assay [7] came to 1.6 µg/mL (≈ 3.15 µM). Besides, the MIC PM 6391 in assay [8] was found to be 0.8 µg/mL (≈ 1.58 µM). Moreover, the MIC PM 10775 in assay [9] was ≤ 0.1 µg/mL. Also, the MIC PM 12080 in assay [10] stood at 0.8 µg/mL (≈ 1.58 µM).
Turning to `CC(C)([C@H](NC(=O)c1ccc(C#Cc2ccc(CNC3CC3)nc2)cc1)C(=O)NO)S(C)(=O)=O` [Compound 348], in assay [1], the MIC MH 6357 came to 0.8 µg/mL (≈ 1.65 µM). In [2], this molecule returned an MIC MH 6374 of 0.8 µg/mL (≈ 1.65 µM). Besides, the MIC MH 10720 in assay [3] was ≤ 0.1 µg/mL. This molecule also registered an MIC MH 12587 in assay [4] of 3.1 µg/mL (≈ 6.4 µM). The same molecule yielded an MIC MH 13065 in assay [5] of 0.8 µg/mL (≈ 1.65 µM). Moreover, the MIC MH 13093 in assay [6] worked out at 0.8 µg/mL (≈ 1.65 µM). The MIC PM 6267 in assay [7] amounted to 0.8 µg/mL (≈ 1.65 µM). In assay [8], the MIC PM 6391 is ≤ 0.1 µg/mL. The MIC PM 10775 in assay [9] is ≤ 0.1 µg/mL. Besides, in assay [10], the MIC PM 12080 was ≤ 0.1 µg/mL.

For the origin of these results see US11034650B2, “Compounds useful for treating a Mannheimia haemolytica or Histophilus somni infection” (Intervet Inc., priority 2016, dated 2021).
